Source: patent publication US7897582B2, “Oligonucleotide compositions and methods for the modulation of the expression of B7 protein” (Isis Pharmaceuticals, Inc., priority 2003, dated 2011)
Strand notation (5' to 3'): a small letter for the sugar, then the base; units joined by * are phosphorothioate-linked, units joined directly phosphodiester-linked; [ ] holds rarer units or linkages, { } end groups; capitals alone tell only the bases. e = 2'-O-(2-methoxyethyl) (MOE); [5mC] = 5-methylcytosine; d = 2'-deoxy (DNA)

Tests used:
Type in all cases: cell-based
Human B7-1 mRNA = Human B7-1 mRNA expression in COS-7 cells, screened as in Example 4
human B7-2 = assay: Cell surface expression of B7-2 in transfected COS-7 cells by flow cytometry; conditions: for % B7-2 EXPRESSION: human B7 cell surface expression, Table 16
How it was run: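 COS-7 cells transfected with B7-2 plasmid (calcium phosphate), then treated with antisense oligonucleotides with 15 μg/mL Lipofectin for 4 h, followed by oligonucleotide in DMEM/10% FCS. After 24-48 h, cells stained with FITC- or PE-conjugated anti-CD86 for 30 min at 4 °C and analysed by flow cytometry.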

human B7-1 = assay: Cell surface expression of B7-1 in pcB7-1-transfected COS-7 cells by flow cytometry; conditions: for % B7-1 EXPRESSION: human B7 cell surface expression, Table 16; for % Surface Inhibition / % Surface Expression: COS-7 cells, B7-1 cell surface; for % Surface Expression: basal = 100%
Method: The ability of oligonucleotides to inhibit B7-1 expression was evaluated by measuring the cell surface expression of B7-1 in transfected COS-7 cells by flow cytometry.
A T-175 flask was seeded at 75% confluency with COS-7 cells (ATCC accession No. CRL 1651). The plasmid pcB7-1 was introduced into cells by standard calcium phosphate transfection. Following a 4 hour transfection, the cells were trypsinized and seeded in 12-well dishes at 80% confluency. The cells were allowed to adhere to the plastic for 1 hour and were then washed with phosphate-buffered saline (PBS). OptiMEM™ (GIBCO-BRL, Gaithersburg, Md.) medium was added along with 15 μg/mL of Lipofectin™ (GIBCO-BRL, Gaithersburg, Md.) and oligonucleotide at the indicated concentrations. After four additional hours, the cells were washed with phosphate buffered saline (PBS) and incubated with fresh oligonucleotide at the same concentration in DMEM (Dulbecco et al., Virol., 1959, 8, 396; Smith et al., Virol., 1960, 12, 185) with 10% fetal calf sera (FCS).
In order to monitor the effects of oligonucleotides on cell surface expression of B7-1, treated COS-7 cells were harvested by brief trypsinization 24-48 hours after oligonucleotide treatment. The cells were washed with PBS, then resuspended in 100 μL of staining buffer (PBS, 0.2% BSA, 0.1% azide) with 5 μL conjugated anti-B7-1-antibody (i.e., anti-hCD80-FITC, Ancell, Bayport, Minn.; FITC: fluorescein isothiocyanate). The cells were stained for 30 minutes at 4° C., washed with PBS, resuspended in 300 μL containing 0.5% paraformaldehyde. Cells were harvested and the fluorescence profiles were determined using a flow cytometer.
B7 antisense oligonucleotides were tested for their effect on cell surface expression of both B7-1 and B7-2. Cell surface expression was measured as described in Example 1. Experiments were done for both human B7 and mouse B7.
The oligonucleotides were screened as described in Example 2 except that the concentration of oligonucleotide was varied as shown in Table 18.

Substance: 22324 (eG*eG*e[5mC]*e[5mC]*eA*dT*dA*dT*dA*dT*dT*d[5mC]*dA*dT*dG*eT*e[5mC]*e[5mC]*e[5mC]*e[5mC]; antisense) [compound 22324]
- % mRNA EXPRESSION (Human B7-1 mRNA; human B7-1 mRNA, Table 7): 46%
- % B7-2 EXPRESSION (human B7-2): 91%
- % B7-1 EXPRESSION (human B7-1): 37%

Substance: 22325 (eG*e[5mC]*e[5mC]*eA*eG*dG*dA*dT*d[5mC]*dA*d[5mC]*dA*dA*dT*dG*eG*eA*eG*eA*eG) [compound 22325]
- % mRNA EXPRESSION (Human B7-1 mRNA; human B7-1 mRNA, Table 7): 46%
- % B7-2 EXPRESSION (human B7-2): 89%
- % B7-1 EXPRESSION (human B7-1): 32%

Substance: 22334 (antisense eA*eA*eG*e[5mC]*eA*dG*dT*dA*dG*dG*dT*d[5mC]*dA*dG*dG*e[5mC]*eA*eG*e[5mC]*eA) [compound 22334]
- % mRNA EXPRESSION (Human B7-1 mRNA; human B7-1 mRNA, Table 7): 43%
- % B7-2 EXPRESSION (human B7-2): 92%
- % B7-1 EXPRESSION (human B7-1): 28%

Substance: 22335 (antisense e[5mC]*e[5mC]*eT*eT*eG*d[5mC]*dT*dT*d[5mC]*dT*dG*d[5mC]*dG*dG*dA*e[5mC]*eA*e[5mC]*eT*eG) [compound 22335]
- % mRNA EXPRESSION (Human B7-1 mRNA; 10 nM, COS-7, Table 8): 81%
- % mRNA INHIBITION (Human B7-1 mRNA; 10 nM, COS-7, Table 8): 19%
- % mRNA EXPRESSION (Human B7-1 mRNA; 30 nM, COS-7, Table 8): 63%
- % mRNA INHIBITION (Human B7-1 mRNA; 30 nM, COS-7, Table 8): 37%
- % mRNA EXPRESSION (Human B7-1 mRNA; 100 nM, COS-7, Table 8): 43%
- % mRNA INHIBITION (Human B7-1 mRNA; 100 nM, COS-7, Table 8): 57%
- % mRNA EXPRESSION (Human B7-1 mRNA; 300 nM, COS-7, Table 8): 35%
- % mRNA INHIBITION (Human B7-1 mRNA; 300 nM, COS-7, Table 8): 65%
- % mRNA EXPRESSION (Human B7-1 mRNA; human B7-1 mRNA, Table 7): 43%
- % B7-2 EXPRESSION (human B7-2): 95%
- % Surface Inhibition (human B7-1; dose 10 nM): 19%
- % Surface Expression (human B7-1; dose 10 nM): 81%
- % Surface Inhibition (human B7-1; dose 30 nM): 31%
- % Surface Expression (human B7-1; dose 30 nM): 69%
- % Surface Inhibition (human B7-1; dose 100 nM): 53%
- % Surface Expression (human B7-1; dose 100 nM): 47%
- % Surface Inhibition (human B7-1; dose 300 nM): 62%
- % Surface Expression (human B7-1; dose 300 nM): 38%
- % B7-1 EXPRESSION (human B7-1): 23%

Substance: 22337 (antisense eT*eG*eA*e[5mC]*eG*dG*dA*dG*dG*d[5mC]*dT*dA*d[5mC]*d[5mC]*dT*eT*e[5mC]*eA*eG*eA) [compound 22337]
- % mRNA EXPRESSION (Human B7-1 mRNA; human B7-1 mRNA, Table 7): 42%
- % B7-2 EXPRESSION (human B7-2): 101%
- % B7-1 EXPRESSION (human B7-1): 48%

Substance: 22338 (antisense eG*e[5mC]*e[5mC]*eT*e[5mC]*dA*dT*dG*dA*dT*d[5mC]*d[5mC]*d[5mC]*d[5mC]*dA*e[5mC]*eG*eA*eT*e[5mC]) [compound 22338]
- % mRNA EXPRESSION (Human B7-1 mRNA; 10 nM, COS-7, Table 8): 68%
- % mRNA INHIBITION (Human B7-1 mRNA; 10 nM, COS-7, Table 8): 32%
- % mRNA EXPRESSION (Human B7-1 mRNA; 30 nM, COS-7, Table 8): 60%
- % mRNA INHIBITION (Human B7-1 mRNA; 30 nM, COS-7, Table 8): 40%
- % mRNA EXPRESSION (Human B7-1 mRNA; 100 nM, COS-7, Table 8): 53%
- % mRNA INHIBITION (Human B7-1 mRNA; 100 nM, COS-7, Table 8): 47%
- % mRNA EXPRESSION (Human B7-1 mRNA; 300 nM, COS-7, Table 8): 41%
- % mRNA INHIBITION (Human B7-1 mRNA; 300 nM, COS-7, Table 8): 59%
- % mRNA EXPRESSION (Human B7-1 mRNA; human B7-1 mRNA, Table 7): 40%
- % B7-2 EXPRESSION (human B7-2): 96%
- % Surface Inhibition (human B7-1; dose 10 nM): 22%
- % Surface Expression (human B7-1; dose 10 nM): 78%
- % Surface Inhibition (human B7-1; dose 30 nM): 35%
- % Surface Expression (human B7-1; dose 30 nM): 65%
- % Surface Inhibition (human B7-1; dose 100 nM): 50%
- % Surface Expression (human B7-1; dose 100 nM): 50%
- % Surface Inhibition (human B7-1; dose 300 nM): 60%
- % Surface Expression (human B7-1; dose 300 nM): 40%
- % B7-1 EXPRESSION (human B7-1): 22%

Substance: ISIS 13872: scrambled control of ISIS 13812; SEQ ID NO: 52 (SEQ ID NO: 37) (antisense dA*dG*dT*dC*dC*dT*dA*dC*dT*dA*dC*dC*dA*dG*dC*dC*dG*dC*dC*dT) [reference compound]
- effect on B7-2 expression (specificity) (human B7-2; FIG. 5): essentially no activity
- effect on B7-1 expression (specificity) (human B7-1; FIG. 5): essentially no activity
